How the values were obtained:
RXRγ [1] = molecular target: T1, RXRγ (UniProt P28705); assay: ligand binding assay, RXRγ; conditions: read-out: RXR Bind Ki (nM) γ
T1 sequence (P28705 1-463): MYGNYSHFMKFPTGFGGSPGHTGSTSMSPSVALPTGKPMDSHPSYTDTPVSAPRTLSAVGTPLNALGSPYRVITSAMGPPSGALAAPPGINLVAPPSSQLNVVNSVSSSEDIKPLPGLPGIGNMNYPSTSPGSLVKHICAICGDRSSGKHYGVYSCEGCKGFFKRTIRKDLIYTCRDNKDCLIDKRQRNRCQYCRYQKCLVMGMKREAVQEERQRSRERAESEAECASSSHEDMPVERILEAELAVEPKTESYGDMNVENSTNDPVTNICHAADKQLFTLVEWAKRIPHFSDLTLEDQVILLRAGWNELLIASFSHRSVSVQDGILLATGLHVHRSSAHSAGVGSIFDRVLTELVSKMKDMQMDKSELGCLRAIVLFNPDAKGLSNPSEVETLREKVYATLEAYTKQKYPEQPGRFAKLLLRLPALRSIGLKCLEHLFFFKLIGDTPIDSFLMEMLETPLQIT
Description: (§2) The results obtained in this assay are expressed in EC50 numbers, as they are also in the chimeric receptor transactivation assay. The results of ligand binding assay are expressed in Kd numbers.
(§3) Particularly, the transactivation data pertaining to RAR receptors were obtained in the chimeric assay, and the data pertaining to transactivation of RXR receptors were obtained in the holoreceptor transactivation assay.

RXRγ [2] = molecular target: T1, RXRγ; assay: holoreceptor transactivation assay, RXRγ; format: cell-based; conditions: NA = Not Active, read-out: RXR Trans. EC50 (nM) γ
Description: (§4) The results obtained in this assay are expressed in EC50 numbers, as they are also in the chimeric receptor transactivation assay.

RXRβ [3] = molecular target: T2, RXRβ (UniProt P28704); assay: ligand binding assay, RXRβ; conditions: read-out: RXR Bind Ki (nM) β
T2 sequence (P28704 1-520): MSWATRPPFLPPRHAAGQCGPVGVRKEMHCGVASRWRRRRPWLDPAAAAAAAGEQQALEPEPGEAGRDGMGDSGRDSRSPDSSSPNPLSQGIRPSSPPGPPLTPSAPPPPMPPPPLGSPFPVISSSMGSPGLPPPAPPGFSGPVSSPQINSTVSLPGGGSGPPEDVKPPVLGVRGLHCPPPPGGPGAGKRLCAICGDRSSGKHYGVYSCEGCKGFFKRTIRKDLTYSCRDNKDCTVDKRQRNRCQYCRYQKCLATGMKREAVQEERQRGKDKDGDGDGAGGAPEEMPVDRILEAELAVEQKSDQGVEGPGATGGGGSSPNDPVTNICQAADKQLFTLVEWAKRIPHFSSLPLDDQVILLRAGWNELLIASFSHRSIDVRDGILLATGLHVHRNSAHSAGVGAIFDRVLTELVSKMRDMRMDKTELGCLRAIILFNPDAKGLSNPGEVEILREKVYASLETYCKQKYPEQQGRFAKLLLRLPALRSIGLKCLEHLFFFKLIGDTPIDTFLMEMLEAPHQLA
Description: as §2, §3

RXRβ [4] = molecular target: T2, RXRβ; assay: holoreceptor transactivation assay, RXRβ; format: cell-based; conditions: NA = Not Active, read-out: RXR Trans. EC50 (nM) β
Description: as §4

RARγ = RARγ (Homo sapiens, UniProt P13631); assay: chimeric receptor transactivation assay, RARγ; format: cell-based; conditions: NA = Not Active, read-out: RAR Trans. EC50 (nM) γ
RARγ, sequence (P13631 whole entry): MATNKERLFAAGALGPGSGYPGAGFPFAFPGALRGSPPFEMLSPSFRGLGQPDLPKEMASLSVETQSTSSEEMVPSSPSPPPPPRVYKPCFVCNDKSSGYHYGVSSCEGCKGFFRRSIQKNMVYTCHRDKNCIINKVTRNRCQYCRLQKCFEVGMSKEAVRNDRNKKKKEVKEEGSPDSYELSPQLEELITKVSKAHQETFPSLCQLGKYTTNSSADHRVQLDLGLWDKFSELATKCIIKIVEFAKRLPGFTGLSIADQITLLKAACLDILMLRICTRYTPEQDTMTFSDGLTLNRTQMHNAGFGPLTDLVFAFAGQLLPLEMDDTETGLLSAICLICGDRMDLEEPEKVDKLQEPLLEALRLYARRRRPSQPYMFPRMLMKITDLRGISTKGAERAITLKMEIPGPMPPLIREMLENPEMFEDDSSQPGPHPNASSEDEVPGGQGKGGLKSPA
RARγ, sequence (P19793 whole entry, further chain): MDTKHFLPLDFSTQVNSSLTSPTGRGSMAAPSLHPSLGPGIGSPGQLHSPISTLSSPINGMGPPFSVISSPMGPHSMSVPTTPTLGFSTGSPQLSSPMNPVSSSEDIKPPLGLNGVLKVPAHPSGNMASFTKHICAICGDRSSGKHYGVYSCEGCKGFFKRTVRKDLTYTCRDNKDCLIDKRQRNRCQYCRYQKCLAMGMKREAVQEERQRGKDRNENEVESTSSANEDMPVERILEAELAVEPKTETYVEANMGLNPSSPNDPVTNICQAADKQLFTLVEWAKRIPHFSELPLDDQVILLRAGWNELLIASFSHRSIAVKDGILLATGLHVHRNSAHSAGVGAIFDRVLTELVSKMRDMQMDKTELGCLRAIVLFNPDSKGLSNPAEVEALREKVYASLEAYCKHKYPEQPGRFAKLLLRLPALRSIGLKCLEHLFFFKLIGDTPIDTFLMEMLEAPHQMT
Description: (§1) The specification of U.S. Pat. No. 5,455,265 is hereby expressly incorporated by reference.

RARβ = RARβ (Homo sapiens, UniProt P10826); assay: chimeric receptor transactivation assay, RARβ; format: cell-based; conditions: NA = Not Active, read-out: RAR Trans. EC50 (nM) β
RARβ, sequence (P19793 whole entry): as the sequence (P19793 whole entry, further chain) above
RARβ, sequence (P10826 154-455): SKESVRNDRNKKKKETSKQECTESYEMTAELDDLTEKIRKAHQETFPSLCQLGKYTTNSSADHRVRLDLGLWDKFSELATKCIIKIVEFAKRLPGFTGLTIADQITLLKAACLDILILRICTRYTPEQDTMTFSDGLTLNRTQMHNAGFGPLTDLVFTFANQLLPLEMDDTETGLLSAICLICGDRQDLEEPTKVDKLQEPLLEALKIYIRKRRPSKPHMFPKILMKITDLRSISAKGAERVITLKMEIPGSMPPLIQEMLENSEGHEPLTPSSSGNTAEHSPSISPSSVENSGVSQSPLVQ
Description: as §1

Ki (RXRβ [3]) [nM]	EC50 (RXRβ [4]) [nM]	Compound	further results
> 1000		CC1=CCC(C)(C)c2cc(N(C)c3ccc(C(=O)O)cc3)c(C)cc21 [Compound 44, 4-[Methyl(3,5,8,8-tetramethyl-7,8-dihydronaphthalen-2-yl)amino]benzoic acid]	Ki (RXRγ [1]): > 1000 nM; EC50 (RXRγ [2]): > 1000 nM
> 1000		CCN(c1ccc(C(=O)O)cc1)c1cc2c(cc1C)C(C)=CCC2(C)C [Compound 45, 4-[Ethyl(3,5,8,8-tetramethyl-7,8-dihydronaphthalen-2-yl)amino]benzoic acid]	Ki (RXRγ [1]): > 1000 nM; EC50 (RXRγ [2]): > 1000 nM
> 10000	> 1000	CCCN(c1ccc(C(=O)O)cc1)c1cc2c(cc1C)C(C)=CCC2(C)C [Compound 46, 4-[n-Propyl(3,5,8,8-tetramethyl-7,8-dihydronaphthalen-2-yl)amino]benzoic acid]	Ki (RXRγ [1]): > 10000 nM
> 1000		CC1=CCC(C)(C)c2cc(N(CC3CC3)c3ccc(C(=O)O)cc3)c(C)cc21 [Compound 47, 4-[Cyclopropylmethyl(3,5,8,8-tetramethyl-7,8-dihydronaphthalen-2-yl)amino]benzoic acid]	
	> 1000	Cc1cc2c(cc1N(C)c1ccc(C(=O)O)cc1)C(C)(C)CC=C2C(C)C [Compound 52, 4-[Methyl-(5-isopropyl-3,8,8-trimethyl-7,8-dihydronaphthalen-2-yl)amino]benzoic acid]	
> 1000	> 1000	CCN(c1ccc(C(=O)O)cc1)c1cc2c(cc1C)C(C(C)C)=CCC2(C)C [Compound 53]	
> 1000	> 1000	CCCN(c1ccc(C(=O)O)cc1)c1cc2c(cc1C)C(C(C)C)=CCC2(C)C [Compound 54, 4-[n-Propyl-(5-isopropyl-3,8,8-trimethyl-7,8-dihydronaphthalen-2-yl)lamino]benzoic acid]	
> 1000		CC1=CCC(C)(C)c2cc(N(C)c3ccc(C(=O)O)cc3)ccc21 [Compound 67, 4-[Methyl-(5,8,8-trimethyl-7,8-dihydro-naphthalen-2-yl)-amino]-benzoic acid]	
		C=CCN(c1ccc(C(=O)O)cc1)c1ccc2c(c1)C(C(C)(C)C)=CCC2(C)C [Compound 90, 4-[(8-t-Butyl-5,5-dimethyl-5,6-dihydronaphthalen-2-yl)(prop-2-en-yl)lamino]-benzoic acid]	EC50 (RARγ): > 1000 nM; EC50 (RARβ): > 1000 nM
		CCCCCCOc1cc2c(cc1N(CCC)c1ccc(C(=O)O)cc1)C(C)=CCC2(C)C [Compound 145, 4-[(3-n-Hexyloxy-5,5,8-trimethyl-5,6-dihydronaphthalen-2-yl)-n-propylamino]benzoic acid]	EC50 (RXRγ [2]): > 1000 nM
		CCCN(c1ccc(C(=O)O)cc1)c1cc2c(cc1OCc1ccccc1)C(C)(C)CC=C2C(C)C [Compound 157]	EC50 (RARβ): > 1000 nM

From US7026487B2, “Amines substituted with a dihydronaphthalenyl, chromenyl, or thiochromenyl group, a pyridyl group and an alkyl group, having retinoid-like biological activity” (Allergan, Inc., priority 2000, dated 2006)
